Assay results published in ChEMBL document CHEMBL5696442, “Discovery of type II inhibitors of TGFβ-activated kinase 1 (TAK1) and mitogen-activated protein kinase kinase kinase kinase 2 (MAP4K2)” (J Med Chem, 2015).
The source made the active and inactive calls. The calls are words filed in the database; no cut-off is given here.

What was measured:
[1] = target: T1, Mitogen-activated protein kinase kinase kinase 3 (Homo sapiens) (UniProt Q99759); experiment: Inhibition of MAP3K3 Lys2 labeling site in human A-375 cells at 0.05 uM by KiNativ Profiling analysis relative to control; type: cell-based
T1 sequence (whole entry): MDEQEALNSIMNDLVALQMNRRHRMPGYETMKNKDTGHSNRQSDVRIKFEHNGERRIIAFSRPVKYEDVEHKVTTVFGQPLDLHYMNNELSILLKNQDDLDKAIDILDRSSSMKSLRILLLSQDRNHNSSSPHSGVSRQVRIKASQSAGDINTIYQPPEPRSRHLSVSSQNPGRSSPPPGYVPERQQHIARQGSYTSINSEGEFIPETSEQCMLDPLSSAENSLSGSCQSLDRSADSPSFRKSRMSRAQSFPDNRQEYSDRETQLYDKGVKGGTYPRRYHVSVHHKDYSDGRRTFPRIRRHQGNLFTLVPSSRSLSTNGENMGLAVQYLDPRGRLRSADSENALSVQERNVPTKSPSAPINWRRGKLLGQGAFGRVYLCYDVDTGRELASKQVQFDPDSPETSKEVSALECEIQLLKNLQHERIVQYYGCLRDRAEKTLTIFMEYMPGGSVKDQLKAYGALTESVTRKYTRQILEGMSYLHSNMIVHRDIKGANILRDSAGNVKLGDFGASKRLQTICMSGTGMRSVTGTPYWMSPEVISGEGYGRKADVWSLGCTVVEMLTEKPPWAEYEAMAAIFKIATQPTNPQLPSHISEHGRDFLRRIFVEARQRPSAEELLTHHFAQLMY

[2] = target: Death-associated protein kinase 3 (Homo sapiens) (UniProt O43293); experiment: Inhibition of DAPK3 (unknown origin) at 10 uM by Ambit Kinomescan binding assay
Sequence of Death-associated protein kinase 3 (Homo sapiens) (O43293 whole entry, looked up): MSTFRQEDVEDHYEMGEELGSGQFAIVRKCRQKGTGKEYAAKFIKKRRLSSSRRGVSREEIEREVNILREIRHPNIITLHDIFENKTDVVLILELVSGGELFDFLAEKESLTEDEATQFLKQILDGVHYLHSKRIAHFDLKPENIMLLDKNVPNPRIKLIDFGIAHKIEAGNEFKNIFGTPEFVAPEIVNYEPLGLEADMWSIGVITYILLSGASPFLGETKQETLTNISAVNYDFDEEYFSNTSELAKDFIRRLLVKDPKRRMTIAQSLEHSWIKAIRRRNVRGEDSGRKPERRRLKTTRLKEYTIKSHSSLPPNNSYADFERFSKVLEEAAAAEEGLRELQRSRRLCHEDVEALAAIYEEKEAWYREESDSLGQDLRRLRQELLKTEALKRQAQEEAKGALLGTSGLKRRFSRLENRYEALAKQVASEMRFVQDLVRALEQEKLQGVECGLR

[3] = target: T2, Mitogen-activated protein kinase kinase kinase kinase 2 (Homo sapiens) (UniProt Q12851); experiment: Inhibition of MAP4K2 (unknown origin) at 1 uM by Ambit Kinomescan binding assay relative to control; values are per cent of control
T2 sequence (whole entry): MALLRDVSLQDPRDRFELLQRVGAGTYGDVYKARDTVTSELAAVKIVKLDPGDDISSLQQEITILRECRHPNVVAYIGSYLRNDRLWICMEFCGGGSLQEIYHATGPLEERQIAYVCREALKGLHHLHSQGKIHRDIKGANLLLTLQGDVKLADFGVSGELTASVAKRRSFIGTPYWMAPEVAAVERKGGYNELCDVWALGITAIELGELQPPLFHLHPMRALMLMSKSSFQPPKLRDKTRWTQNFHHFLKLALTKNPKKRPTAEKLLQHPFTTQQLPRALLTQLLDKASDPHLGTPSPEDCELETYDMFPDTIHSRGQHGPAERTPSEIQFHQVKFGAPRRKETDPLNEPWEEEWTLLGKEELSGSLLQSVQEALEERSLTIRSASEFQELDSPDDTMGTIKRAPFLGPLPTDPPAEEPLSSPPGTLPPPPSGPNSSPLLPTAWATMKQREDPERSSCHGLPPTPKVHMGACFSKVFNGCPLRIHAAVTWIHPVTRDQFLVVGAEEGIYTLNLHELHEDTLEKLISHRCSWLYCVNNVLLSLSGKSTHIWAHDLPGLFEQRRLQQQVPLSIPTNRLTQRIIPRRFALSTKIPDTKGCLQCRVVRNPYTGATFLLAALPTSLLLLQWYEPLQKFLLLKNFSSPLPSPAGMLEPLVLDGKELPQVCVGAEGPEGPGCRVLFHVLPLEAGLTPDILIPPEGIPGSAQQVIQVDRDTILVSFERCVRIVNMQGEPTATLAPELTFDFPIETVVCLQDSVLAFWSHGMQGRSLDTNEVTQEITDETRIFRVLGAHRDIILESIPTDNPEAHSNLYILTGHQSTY

[4] = system: Receptor-type tyrosine-protein kinase FLT3 (Homo sapiens), P36888 [D835Y]; experiment: Inhibition of FLT3 D835Y mutant (unknown origin) at 1 uM by Ambit Kinomescan binding assay relative to control; values are per cent of control
[5] = target: T3, Serine/threonine-protein kinase Nek9 (Homo sapiens) (UniProt Q8TD19); experiment: Inhibition of NEK9 ACT labeling site in human A-375 cells at 5 uM by KiNativ Profiling analysis relative to control; type: cell-based
T3 sequence (whole entry): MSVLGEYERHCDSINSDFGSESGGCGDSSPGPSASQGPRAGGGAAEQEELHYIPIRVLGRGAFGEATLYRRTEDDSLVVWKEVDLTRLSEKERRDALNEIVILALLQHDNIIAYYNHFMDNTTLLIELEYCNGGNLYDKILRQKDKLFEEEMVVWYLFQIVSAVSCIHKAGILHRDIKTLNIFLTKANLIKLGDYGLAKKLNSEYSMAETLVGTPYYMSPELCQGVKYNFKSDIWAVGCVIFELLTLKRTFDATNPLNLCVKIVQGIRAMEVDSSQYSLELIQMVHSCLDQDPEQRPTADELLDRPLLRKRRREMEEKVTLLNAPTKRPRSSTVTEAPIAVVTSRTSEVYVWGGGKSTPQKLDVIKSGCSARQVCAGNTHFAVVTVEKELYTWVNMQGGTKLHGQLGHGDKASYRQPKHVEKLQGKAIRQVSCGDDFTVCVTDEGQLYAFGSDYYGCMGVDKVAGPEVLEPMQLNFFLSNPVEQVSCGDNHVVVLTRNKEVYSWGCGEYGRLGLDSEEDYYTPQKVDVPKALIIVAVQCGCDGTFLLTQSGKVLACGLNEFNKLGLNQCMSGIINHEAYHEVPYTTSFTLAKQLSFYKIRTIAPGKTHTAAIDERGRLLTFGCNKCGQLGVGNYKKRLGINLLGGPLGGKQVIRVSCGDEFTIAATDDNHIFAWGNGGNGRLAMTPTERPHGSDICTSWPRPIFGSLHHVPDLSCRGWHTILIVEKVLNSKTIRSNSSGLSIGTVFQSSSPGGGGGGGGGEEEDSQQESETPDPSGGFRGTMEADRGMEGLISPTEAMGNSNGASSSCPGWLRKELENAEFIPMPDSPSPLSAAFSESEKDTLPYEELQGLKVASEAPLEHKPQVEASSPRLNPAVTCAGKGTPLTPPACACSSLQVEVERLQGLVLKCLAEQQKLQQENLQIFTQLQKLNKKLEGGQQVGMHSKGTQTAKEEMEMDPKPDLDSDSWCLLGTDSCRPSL

[6] = target: Ribosomal protein S6 kinase alpha-4 (Homo sapiens) (UniProt O75676); experiment: Inhibition of MSK2 domain1 ATP labeling site in human Huh-7 cell lysate at 1 uM by KiNativ Profiling analysis relative to control; type: subcellular
Sequence of Ribosomal protein S6 kinase alpha-4 (Homo sapiens) (O75676 whole entry, looked up, the tested form may be a part): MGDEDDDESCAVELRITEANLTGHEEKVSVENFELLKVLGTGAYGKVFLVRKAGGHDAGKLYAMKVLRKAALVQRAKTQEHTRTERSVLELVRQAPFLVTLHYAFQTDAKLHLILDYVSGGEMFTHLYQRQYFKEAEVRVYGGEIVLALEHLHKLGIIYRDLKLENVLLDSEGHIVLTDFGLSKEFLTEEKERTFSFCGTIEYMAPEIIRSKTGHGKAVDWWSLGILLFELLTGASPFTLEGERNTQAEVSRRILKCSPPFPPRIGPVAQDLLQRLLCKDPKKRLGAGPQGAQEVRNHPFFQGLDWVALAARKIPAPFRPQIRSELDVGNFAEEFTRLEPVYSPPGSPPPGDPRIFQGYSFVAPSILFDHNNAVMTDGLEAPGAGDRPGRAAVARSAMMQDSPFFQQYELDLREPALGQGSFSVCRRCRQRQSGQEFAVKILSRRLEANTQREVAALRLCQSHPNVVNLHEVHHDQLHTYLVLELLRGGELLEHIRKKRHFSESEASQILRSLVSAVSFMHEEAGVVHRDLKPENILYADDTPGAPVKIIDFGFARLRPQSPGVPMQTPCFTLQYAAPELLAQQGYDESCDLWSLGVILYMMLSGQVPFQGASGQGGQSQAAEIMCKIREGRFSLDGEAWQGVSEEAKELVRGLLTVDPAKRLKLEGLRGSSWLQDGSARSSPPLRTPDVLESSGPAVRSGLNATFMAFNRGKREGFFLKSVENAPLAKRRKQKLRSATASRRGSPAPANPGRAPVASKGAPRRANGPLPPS

In the case of `CCN1CCN(Cc2ccc(NC(=O)c3ccc(C)c(Oc4ccnc5[nH]ccc45)c3)cc2C(F)(F)F)CC1`, the inhibition [1] is reported as 7.6% and the inhibition [2] is reported as “inactive”.
`CCN1CCN(Cc2ccc(NC(=O)c3ccc(C)c(/C=C/c4cnc5[nH]ccc5c4OC)c3)cc2C(F)(F)F)CC1` showed a percent of control [3] of 3.2%, a residual activity [4] of 6.8% and an inhibition [5] of 14.9%.
Work on `CNc1cc(Oc2cc(C(=O)Nc3cc(N4CCN(C)CC4)cc(C(F)(F)F)c3)ccc2C)ncn1` yielded an inhibition [6] of -8%.
